Where a name gives a salt, the structure may show the parent alone. Read-outs that look alike come from different tables or passages of the source. One block for each compound: values may come before it.
What was measured:
Type in all cases: physicochemical
[1] = Kinetic solubility test in water and bio-relevant media (SGF, FaSSIF, FeSSIF); details: for Purity (%), area percentage of API: for reference only (suspensions); for Solubility in H2O, comparison in words: compared with the other tested materials; for FC: form change: residual solids by XRPD; for pH: supernatant
Method: (§1) Weigh 100 mg of sodium chloride and 50 mg of Triton X-100 into a 50-mL volumetric flask. Add appropriate volume of purified water and sonicate until all solids are completely dissolved. Add about 68 μL of 12 M HCl and sufficient purified water closely to the target volume and adjust to pH 1.8. Dilute to volume with purified water, mix well and check the pH with a pH meter.
as §1, with “170” for “100”, “phosphate monobasic, 21” for “chloride and 50”, “sodium hydroxide and 310 mg of sodium chloride, 110 mg of SIF powder” for “Triton X-100”, “Add” for “Add about 68 μL of 12 M HCl and”, “6.5.” for “1.8.”
Weigh 0.41 mL of glacial acetic acid, 202 mg of sodium hydroxide and 594 mg of sodium chloride, 560 mg of SIF powder into a 50-mL volumetric flask. Add appropriate volume of purified water to dissolve the solids. Then add sufficient purified water closely to the target volume and adjust to pH 5.0. Dilute to volume with purified water, mix well and check the pH with a pH meter.
Kinetic solubility was evaluated in water and three bio-relevant media (SGF, FaSSIF and FeSSIF) for 1/4/24 hours. 3-4 mg of solids were suspended in 3 mL each medium (solid loading: 1 mg/mL, calculated using freeform) to get a suspension, followed by rolling (25 rpm) at 37° C. for 1/4/24 hours. At each time point, ˜1.0 mL of suspension was sampled out for centrifugation (12000 rpm, 2 min) and filtration through 0.45 μm PTFE membrane to obtain supernatant for HPLC and pH tests, the residual solids were analyzed by XRPD.
Kinetic solubility was evaluated for 1:1 Compound II Citrate Salt (Form A), 1:1 Compound II Tris Salt (Form B), and freeform of Compound II in water and three bio-relevant media (SGF, FaSSIF and FeSSIF) for 1/4/24 hours. 3-4 mg of solids were suspended in 3 mL each medium (solid loading:
1 mg/mL, calculated using freeform) to get a suspension, followed by rolling (25 rpm) at 37° C. for 1/4/24 hours. At each time point, ˜1.0 mL of suspension was sampled out for centrifugation (12000 rpm, 2 min) and filtration through 0.45 μm PTFE membrane to obtain supernatant for HPLC and pH tests, the residual solids were analyzed by XRPD. […] The purity results were for reference only since the samples were all suspensions.

[2] = VH-XRPD, dehydration of the hydrate
Method: VH-XRPD and single crystal structure determination were performed for 1:1 Compound I Tris Salt (Form A) and it was identified as a monohydrate, which would dehydrate at the ≤30%RH condition.
VH-XRPD was performed for a 1:1 Compound II tris salt (Form B) sample for further identification. […] Combining the characterization results, it is believe that 1:1 Compound II tris salt (Form B) is a hydrate, which would dehydrate below ≤10% RH.

[3] = Polymorph screening; details: solution crystallization and solid transition methods
Method: Polymorph screening experiments on 1:1 Compound I Tris Salt (Form A) were performed under vairous conditions using different solution crystallization or solid transition methods, including anti-solvent addition, reverse anti-solvent addition, slow evaporation, slow cooling, slurry at RT, slurry at 50° C., slurry cycling 5-50° C., vapor-solid diffusion, vapor-solution diffusion, polymer induced crystallization, and grinding.

Purity (%), area percentage of API ([1]; FaSSIF, 1 hour): 92.63%
S: solubility ([1]; FaSSIF, 4 hours, 37° C.): 10 µg/mL
S: solubility ([1]; FaSSIF, 24 hours, 37° C.): 10 µg/mL
Purity (%), area percentage of API ([1]; FaSSIF, 24 hours): 58.70%
Purity (%), area percentage of API ([1]; FeSSIF, 1 hour): 94.61%
S: solubility ([1]; FeSSIF, 4 hours, 37° C.): 200 µg/mL
Purity (%), area percentage of API ([1]; FeSSIF, 4 hours): 81.75%
S: solubility ([1]; FeSSIF, 24 hours, 37° C.): 30 µg/mL
Purity (%), area percentage of API ([1]; FeSSIF, 24 hours): 43.32%
S: solubility ([1]; H2O, 1 hour, 37° C.): 100 µg/mL
Purity (%), area percentage of API ([1]; H2O, 1 hour): 96.74%
S: solubility ([1]; H2O, 4 hours, 37° C.): 100 µg/mL
Purity (%), area percentage of API ([1]; H2O, 4 hours): 89.77%
Purity (%), area percentage of API ([1]; H2O, 24 hours): 60.35%
Solubility in H2O, comparison in words ([1]; H2O): better solubility
solubility at 1 h ([1]; SGF, 37 °C, pH 1.8, simulated gastric fluid, thermodynamic from solid, SGF, 1 hour, 37° C., read-out: S: solubility): 400 µg/mL
solubility at 4 h ([1]; SGF, 37 °C, pH 1.8, simulated gastric fluid, thermodynamic from solid, SGF, 4 hours, 37° C., read-out: S: solubility): 400 µg/mL
solubility at 24 h ([1]; SGF, 37 °C, pH 1.8, simulated gastric fluid, thermodynamic from solid, SGF, 24 hours, 37° C., read-out: S: solubility): 500 µg/mL
Purity (%), area percentage of API ([1]; SGF, 1 hour): 93.12%
Purity (%), area percentage of API ([1]; SGF, 4 hours): 93.05%
Purity (%), area percentage of API ([1]; SGF, 24 hours): 89.49%
Form change in SGF, in words ([1]; SGF, XRPD after solubility test): Form change was observed
FC: form change ([1]; FaSSIF, 24 hours): No
FC: form change ([1]; SGF, 1 hour): Yes
FC: form change ([1]; SGF, 4 hours): Yes
FC: form change ([1]; SGF, 24 hours): Yes
pH ([1]; FaSSIF, 4 hours): 6.6
pH ([1]; FaSSIF, 24 hours): 6.6
pH ([1]; FeSSIF, 1 hour): 5.1
pH ([1]; H2O, 1 hour): 8.0
pH ([1]; H2O, 4 hours): 8.2
pH ([1]; H2O, 24 hours): 8.4
pH ([1]; SGF, 1 hour): 1.9
pH ([1]; SGF, 4 hours): 2.0
pH ([1]; SGF, 24 hours): 1.9
solubility at 24 h ([1]; water, 37 °C, water, thermodynamic from solid, H2O, 24 hours, 37° C., read-out: S: solubility): 50 µg/mL
Relative humidity at which the hydrate would dehydrate [2]: ≤ 30 % RH
Structure (SMILES): O=C(O)c1ccc2nc(CN3CC=C(c4cccc(OCc5ccc(Cl)cc5F)c4)CC3)n(C[C@@H]3CCO3)c2c1 [Tris salt Form A, (S)-2-((4-(3-((4-chloro-2-fluorobenzyl)-oxy)phenyl)-3,6-dihydropyridin-1(2H)-yl)methyl)-1-(oxetan-2-ylmethyl)-1H-benzo[d]-imidazole-6-carboxylic acid]
Form change in polymorph screening [3]: did not change under most of the test conditions

S: solubility ([1]; FaSSIF, 1 hour, 37° C.): 70 µg/mL
Purity (%), area percentage of API ([1]; FaSSIF, 1 hour): 72.58%
S: solubility ([1]; FaSSIF, 4 hours, 37° C.): 50 µg/mL
Purity (%), area percentage of API ([1]; FaSSIF, 4 hours): 59.86%
S: solubility ([1]; FaSSIF, 24 hours, 37° C.): 100 µg/mL
Purity (%), area percentage of API ([1]; FaSSIF, 24 hours): 72.13%
S: solubility ([1]; FeSSIF, 1 hour, 37° C.): 200 µg/mL
Purity (%), area percentage of API ([1]; FeSSIF, 1 hour): 98.18%
S: solubility ([1]; FeSSIF, 4 hours, 37° C.): 300 µg/mL
Purity (%), area percentage of API ([1]; FeSSIF, 4 hours): 93.37%
S: solubility ([1]; FeSSIF, 24 hours, 37° C.): 300 µg/mL
Purity (%), area percentage of API ([1]; FeSSIF, 24 hours): 80.52%
S: solubility ([1]; H2O, 1 hour, 37° C.): 400 µg/mL
Purity (%), area percentage of API ([1]; H2O, 1 hour): 93.07%
S: solubility ([1]; H2O, 4 hours, 37° C.): 900 µg/mL
Purity (%), area percentage of API ([1]; H2O, 4 hours): 93.13%
S: solubility ([1]; H2O, 24 hours, 37° C.): 600 µg/mL
Purity (%), area percentage of API ([1]; H2O, 24 hours): 92.03%
Solubility in H2O, comparison in words ([1]; H2O): better solubility
S: solubility ([1]; SGF, 1 hour, 37° C.): 600 µg/mL
Purity (%), area percentage of API ([1]; SGF, 1 hour): 93.44%
S: solubility ([1]; SGF, 4 hours, 37° C.): 200 µg/mL
Purity (%), area percentage of API ([1]; SGF, 4 hours): 84.69%
S: solubility ([1]; SGF, 24 hours, 37° C.): 200 µg/mL
Purity (%), area percentage of API ([1]; SGF, 24 hours): 82.04%
FC: form change ([1]; FaSSIF, 4 hours): Yes
FC: form change ([1]; FaSSIF, 24 hours): Yes
FC: form change ([1]; FeSSIF, 1 hour): No
FC: form change ([1]; FeSSIF, 4 hours): Yes
FC: form change ([1]; FeSSIF, 24 hours): Yes
FC: form change ([1]; H2O, 1 hour): No
FC: form change ([1]; H2O, 4 hours): Yes
FC: form change ([1]; H2O, 24 hours): Yes
FC: form change ([1]; SGF, 1 hour): Yes
FC: form change ([1]; SGF, 4 hours): Yes
FC: form change ([1]; SGF, 24 hours): Yes
pH ([1]; FaSSIF, 1 hour): 6.6
pH ([1]; FaSSIF, 4 hours): 6.6
pH ([1]; FaSSIF, 24 hours): 6.5
pH ([1]; FeSSIF, 1 hour): 5.1
pH ([1]; FeSSIF, 4 hours): 5.1
pH ([1]; FeSSIF, 24 hours): 5.0
pH ([1]; H2O, 1 hour): 7.6
pH ([1]; H2O, 4 hours): 7.8
pH ([1]; H2O, 24 hours): 7.9
pH ([1]; SGF, 1 hour): 1.9
pH ([1]; SGF, 4 hours): 2.0
pH ([1]; SGF, 24 hours): 2.0
Solubility in SGF, FaSSIF and FeSSIF compared with freeform ([1]; within 1 hour): higher than that of freeform
Relative humidity at which the hydrate would dehydrate [2]: ≤ 10 % RH
Structure (SMILES): N#Cc1ccc(COc2cccc(C3=CCN(Cc4nc5ccc(C(=O)O)cc5n4C[C@@H]4CCO4)CC3)n2)c(F)c1 [Tris salt Form B, (S)-2-((6-((4-cyano-2-fluorobenzyl)oxy)-3′,6′-dihydro-[2,4′-bipyridin]-1′(2′H)-yl)methyl)-1-(oxetan-2-ylmethyl)-1H-benzo[d]imidazole-6-carboxylic acid]
